Assay results reported in ChEMBL document CHEMBL4477222, “Discovery of Novel Thiophene-Based, Thumb Pocket 2 Allosteric Inhibitors of the Hepatitis C NS5B Polymerase with Improved Potency and Physicochemical Profiles” (J Med Chem, 2016).
In brackets after ≈: the same amount, converted by molar mass. Activity calls are given as the source filed them. No cut-off for these calls is given here.

Legend:
[1] = Protein binding in monkey liver at 1 uM; assay type: ADME, tissue-based, Macaca mulatta; conditions: rhesus monkey, read-out: PB (converted)
[2] = tested on: Nonstructural protein 5A (Hepatitis C virus), Q5L478 [UNDEFINED MUTATION]; assay: Inhibition of BMS-790052-resistant HCV genotype 1a NS5A Y93N mutant; conditions: Hepatitis C virus subtype 1a
[3] = Metabolic stability in human liver microsomal S9 fraction assessed as compound remaining at 1 uM after 2 hrs in presence of NADPH/UDPGA; assay type: ADME, subcellular; conditions: read-out: Stability
Cytochrome P450 2E1 = Cytochrome P450 2E1 (Homo sapiens, UniProt P05181); assay: Inhibition of CYP2E1 (unknown origin); assay type: ADME
Cytochrome P450 1A2 = Cytochrome P450 1A2 (Homo sapiens, UniProt P05177); assay: Induction of CYP1A2 (unknown origin) in hepatocytes; assay type: ADME, cell-based
MDCK = assay: Ratio of permeability in MDCK cells expressing OATP1B1 to permeability in wild type MDCK cells; assay type: ADME, cell-based, Canis lupus familiaris; conditions: dog
[4] = tested on: Nonstructural protein 5A (Hepatitis C virus), Q5L478 [UNDEFINED MUTATION]; assay: Inhibition of BMS-790052-resistant HCV genotype 1a NS5A M28T mutant; conditions: Hepatitis C virus subtype 1a
[5] = Metabolic stability in monkey liver microsomal S9 fraction assessed as compound remaining at 1 uM after 2 hrs in presence of NADPH; assay type: ADME, subcellular, Macaca mulatta; conditions: rhesus monkey, read-out: Stability
[6] = Drug level in rat plasma; assay type: ADME, cell-free
Nonstructural protein 5A = Nonstructural protein 5A (Hepatitis C virus, UniProt Q5L478); assay: Inhibition of HCV genotype 2a NS5A; parameters: species or system Hepatitis C virus subtype 2a
[7] = Oral bioavailability in dog at 3 mg/kg; assay type: ADME, organism-based, Canis lupus familiaris; conditions: in vivo
[8] = biological target: CYP450 (family, isoform not stated) (Homo sapiens, UniProt P04798+P05177+P05181+P08684+P10632+P10635+P11509+P11712+P13584+P20813+P20815+P20853+P24462+P24903+P33260+P33261+P51589+P78329+P98187+Q02928+Q08477+Q16678+Q16696+Q5TCH4+Q6VVX0+Q7Z449+Q8TAV3+Q96SQ9+Q9HB55); assay: Inhibition of CYP450 (unknown origin); assay type: ADME, protein assay
[9] = Efflux ratio of permeability from basolateral to apical side over apical to basolateral side in human Caco2 cells; assay type: ADME, cell-based; conditions: Caco-2
[10] = biological target: DNA polymerase alpha catalytic subunit (Homo sapiens) (UniProt P09884); assay: Inhibition of human DNA polymerase-alpha by fluorescence/radiometric assay
[11] = Permeability from basolateral to apical side in human Caco2 cells; assay type: ADME, cell-based; conditions: Caco-2, read-out: permeability
[12] = biological target: Nonstructural protein 5A (Hepatitis C virus) (UniProt Q5L478); assay: Ratio of EC50 for HCV genotype 1b NS5A infected in human l389lucubi- neo/NS3-375.1-containing Huh7ET cells in presence of 40% human serum to EC50 for HCV genotype 1b NS5A infected in human l389lucubi- neo/NS3-375.1-containing Huh7ET cells; conditions: Hepatitis C virus subtype 1b
[13] = tested on: NS3 (Hepatitis C virus), A3EZJ3 [R155K,V36M]; assay: Inhibition of telaprevir-resistant HCV NS3 protease V36M/R155K double mutant; conditions: Hepacivirus hominis
[14] = Metabolic stability in human liver microsomal S9 fraction assessed as compound remaining at 1 uM after 2 hrs in presence of NADPH; assay type: ADME, subcellular; conditions: read-out: Stability
[15] = Half life in dog at 3 mg/kg, po; assay type: ADME, organism-based, Canis lupus familiaris; conditions: in vivo
[16] = Oral bioavailability in Sprague-Dawley rat at 3 mg/kg; assay type: ADME, organism-based; conditions: in vivo
[17] = Drug uptake in Sprague-Dawley rat plasma at 10 mg/kg, po administered as single dose; assay type: ADME, organism-based; conditions: in vivo
[18] = AUC (0 to infinity) in Fischer 344 rat at 3 mg/kg, po; assay type: ADME, organism-based; parameters: dose 3 mg/kg, route oral, time infinity; conditions: in vivo
[19] = tested on: NS3 protease (Hepacivirus C), C1KIQ2 [V36M]; assay: Inhibition of telaprevir-resistant HCV NS3 protease V36M mutant; conditions: Hepacivirus hominis
[20] = Metabolic stability in rat hepatocytes assessed as compound remaining at 10 uM after 2 hrs; assay type: ADME, cell-based, Hepatocyte; conditions: read-out: Stability
[21] = AUC (0 to infinity) in Fischer 344 rat at 1 mg/kg, iv through bolus administration; assay type: ADME, organism-based; parameters: dose 1 mg/kg, time infinity, route intravenous; conditions: in vivo
[22] = tested on: Hepatitis C virus subtype 1b; assay: Inhibition of HCV genotype 1b NS5B assessed as suppression of sub-genomic RNA levels at 0.5 times IC50 after 96 hrs in presence of human interferon alpha2a and ribavirin by luciferase reporter gene assay
[23] = Clearance in Fischer 344 rat at 1 mg/kg, iv through bolus administration; assay type: ADME, organism-based; conditions: in vivo
[24] = tested on: Nonstructural protein 5A (Hepatitis C virus), Q5L478 [UNDEFINED MUTATION]; assay: Inhibition of BMS-790052-resistant HCV genotype 1a NS5A Q30R mutant; conditions: Hepatitis C virus subtype 1a
[25] = Protein binding in human plasma at 1 uM; assay type: ADME, cell-free; conditions: read-out: PPB (converted)
[26] = Metabolic stability in monkey liver microsomal S9 fraction assessed as compound remaining at 1 uM after 2 hrs in presence of NADPH/UDPGA; assay type: ADME, subcellular, Macaca mulatta; conditions: rhesus monkey, read-out: Stability
[27] = Permeability from apical to basolateral side in human Caco2 cells; assay type: ADME, cell-based; conditions: Caco-2, read-out: permeability
[28] = biological target: DNA polymerase beta (Homo sapiens) (UniProt P06746); assay: Inhibition of human DNA polymerase-beta by fluorescence/radiometric assay
[29] = biological target: RNA-directed RNA polymerase (Hepacivirus hominis, UniProt O39930, L419I); assay: Inhibition of HCV genotype 1a NS5B L419I mutant; parameters: species or system Hepatitis C virus subtype 1a
[30] = biological target: RNA-directed RNA polymerase (Hepacivirus hominis, UniProt O39930, M423V); assay: Inhibition of HCV genotype 1a NS5B M423V mutant; parameters: species or system Hepatitis C virus subtype 1a
[31] = tested on: Nonstructural protein 5A (Hepatitis C virus), Q5L478 [UNDEFINED MUTATION]; assay: Inhibition of BMS-790052-resistant HCV genotype 1a NS5A P32L mutant; conditions: Hepatitis C virus subtype 1a
[32] = AUC (0 to infinity) in Sprague-Dawley rat at 1 mg/kg, iv through bolus administration; assay type: ADME, organism-based; parameters: dose 1 mg/kg, route intravenous, time infinity; conditions: in vivo
[33] = Drug uptake in Sprague-Dawley rat liver at 10 mg/kg, po administered as single dose; assay type: ADME, organism-based; conditions: in vivo
[34] = Metabolic stability in rat liver microsomal S9 fraction assessed as compound remaining at 1 uM after 2 hrs in presence of NADPH; assay type: ADME, subcellular; conditions: read-out: Stability
[35] = Clearance in monkey at 1 mg/kg, iv through bolus administration; assay type: ADME, organism-based, Macaca mulatta; conditions: rhesus monkey, in vivo
Hepatocyte = assay: Change in CYP1A2 mRNA levels in hepatocytes (unknown origin); assay type: ADME, cell-based
[36] = AUC (0 to infinity) in monkey at 1 mg/kg, iv through bolus administration; assay type: ADME, organism-based, Macaca mulatta; parameters: dose 1 mg/kg, route intravenous, time infinity; conditions: rhesus monkey, in vivo
[37] = Cmax in Fischer 344 rat at 3 mg/kg, po; assay type: ADME, organism-based; parameters: dose 3 mg/kg, route oral; conditions: in vivo
Homo sapiens = organism: Homo sapiens; assay: Inhibition of human DNA polymerase-gamma by radiometric assay
[38] = tested on: NS3 protease (Hepatitis C virus subtype 1b), Q0ZMF1 [A156S]; assay: Inhibition of telaprevir-resistant HCV NS3 protease A156S mutant; conditions: Hepacivirus hominis
[39] = Solubility of the compound in potassium phosphate buffer at pH 7; assay type: physicochemical
[40] = Protein binding in rat plasma at 1 uM; assay type: ADME, cell-free; conditions: read-out: PPB (converted)
[41] = Half life in Fischer 344 rat at 3 mg/kg; assay type: ADME, organism-based; conditions: in vivo
[42] = Cmax in Sprague-Dawley rat at 3 mg/kg, po; assay type: ADME, organism-based; parameters: dose 3 mg/kg, route oral; conditions: in vivo
[43] = Protein binding in rat liver at 1 uM; assay type: ADME, tissue-based; conditions: read-out: PB (converted)

DNA polymerase alpha catalytic subunit (Homo sapiens), sequence (P09884 whole entry): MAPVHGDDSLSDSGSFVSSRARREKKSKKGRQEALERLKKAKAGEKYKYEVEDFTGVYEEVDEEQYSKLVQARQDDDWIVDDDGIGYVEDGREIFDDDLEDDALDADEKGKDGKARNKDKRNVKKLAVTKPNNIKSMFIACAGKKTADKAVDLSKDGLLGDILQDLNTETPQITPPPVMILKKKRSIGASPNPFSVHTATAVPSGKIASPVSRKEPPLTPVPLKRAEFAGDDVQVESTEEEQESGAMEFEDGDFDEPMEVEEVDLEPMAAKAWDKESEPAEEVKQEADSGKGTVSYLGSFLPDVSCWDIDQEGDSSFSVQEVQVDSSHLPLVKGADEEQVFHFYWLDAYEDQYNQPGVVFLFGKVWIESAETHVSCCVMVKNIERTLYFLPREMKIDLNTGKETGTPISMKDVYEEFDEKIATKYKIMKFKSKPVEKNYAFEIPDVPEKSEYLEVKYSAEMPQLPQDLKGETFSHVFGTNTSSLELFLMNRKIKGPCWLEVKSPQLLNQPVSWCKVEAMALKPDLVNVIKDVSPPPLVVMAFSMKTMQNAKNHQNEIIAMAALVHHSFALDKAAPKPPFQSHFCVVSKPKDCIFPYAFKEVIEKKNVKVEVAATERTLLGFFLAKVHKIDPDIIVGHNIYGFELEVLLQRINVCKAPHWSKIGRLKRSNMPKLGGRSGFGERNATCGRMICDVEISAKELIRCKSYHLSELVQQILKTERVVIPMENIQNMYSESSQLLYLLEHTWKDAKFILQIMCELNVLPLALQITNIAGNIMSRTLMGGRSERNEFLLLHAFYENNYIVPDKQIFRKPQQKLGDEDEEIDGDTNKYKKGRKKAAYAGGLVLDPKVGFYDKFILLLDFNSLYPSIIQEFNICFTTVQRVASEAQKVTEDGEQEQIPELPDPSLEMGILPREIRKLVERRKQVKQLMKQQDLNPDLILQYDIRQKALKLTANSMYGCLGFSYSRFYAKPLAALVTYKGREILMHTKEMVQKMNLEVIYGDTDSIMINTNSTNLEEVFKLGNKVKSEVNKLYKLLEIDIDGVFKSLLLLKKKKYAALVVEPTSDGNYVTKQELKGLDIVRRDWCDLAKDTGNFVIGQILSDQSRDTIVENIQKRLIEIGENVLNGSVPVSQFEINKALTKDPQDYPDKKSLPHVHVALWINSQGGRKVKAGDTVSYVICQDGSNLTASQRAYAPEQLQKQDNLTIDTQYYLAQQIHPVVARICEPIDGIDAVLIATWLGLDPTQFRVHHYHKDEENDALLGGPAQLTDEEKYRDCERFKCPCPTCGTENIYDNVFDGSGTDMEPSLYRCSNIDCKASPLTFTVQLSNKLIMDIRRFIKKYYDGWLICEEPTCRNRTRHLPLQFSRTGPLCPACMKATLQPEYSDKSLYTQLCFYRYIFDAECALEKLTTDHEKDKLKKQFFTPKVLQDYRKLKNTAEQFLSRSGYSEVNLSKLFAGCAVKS
Cytochrome P450 2E1, sequence (P05181 whole entry): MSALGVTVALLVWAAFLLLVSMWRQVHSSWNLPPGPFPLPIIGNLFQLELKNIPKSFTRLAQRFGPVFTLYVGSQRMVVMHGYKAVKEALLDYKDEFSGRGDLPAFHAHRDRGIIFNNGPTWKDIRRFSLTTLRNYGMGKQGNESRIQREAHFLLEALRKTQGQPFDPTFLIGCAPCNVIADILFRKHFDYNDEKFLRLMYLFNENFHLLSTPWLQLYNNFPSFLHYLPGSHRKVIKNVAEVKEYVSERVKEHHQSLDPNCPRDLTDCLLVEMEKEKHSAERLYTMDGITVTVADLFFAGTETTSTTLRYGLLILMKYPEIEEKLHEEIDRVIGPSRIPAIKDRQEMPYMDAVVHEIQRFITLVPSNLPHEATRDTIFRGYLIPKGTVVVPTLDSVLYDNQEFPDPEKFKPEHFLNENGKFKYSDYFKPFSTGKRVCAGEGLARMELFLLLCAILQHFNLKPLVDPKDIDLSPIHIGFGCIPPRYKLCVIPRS
Cytochrome P450 1A2, sequence (P05177 whole entry): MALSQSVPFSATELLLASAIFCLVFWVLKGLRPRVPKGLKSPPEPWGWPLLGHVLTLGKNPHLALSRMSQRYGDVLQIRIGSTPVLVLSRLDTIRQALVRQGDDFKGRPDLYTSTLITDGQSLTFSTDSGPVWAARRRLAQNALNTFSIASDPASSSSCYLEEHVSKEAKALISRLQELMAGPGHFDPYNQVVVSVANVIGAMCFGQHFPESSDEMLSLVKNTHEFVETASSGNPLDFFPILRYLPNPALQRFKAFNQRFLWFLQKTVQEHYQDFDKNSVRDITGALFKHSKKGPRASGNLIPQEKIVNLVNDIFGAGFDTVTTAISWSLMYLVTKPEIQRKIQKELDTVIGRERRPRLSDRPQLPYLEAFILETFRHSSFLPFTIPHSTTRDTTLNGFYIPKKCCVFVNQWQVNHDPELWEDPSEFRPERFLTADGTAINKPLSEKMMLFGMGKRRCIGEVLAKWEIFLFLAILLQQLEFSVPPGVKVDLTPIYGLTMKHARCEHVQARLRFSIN

For `CC(C)(C)C#Cc1cc(N(CC(=O)N2CCOCC2)C(=O)[C@H]2CC[C@H](C)CC2)c(C(=O)O)s1`, the fraction unbound at 1 µM [1] was 0.093, the inhibition [2] was “Active” and the remaining at 2 h, 1 µM [3] was 73%. The IC50 (Cytochrome P450 2E1) was 14 µM, the Activity (Cytochrome P450 1A2) was “Not Active” and the Ratio (MDCK) was 3. For the same compound, the inhibition [4] was “Active”, the remaining at 2 h, 1 µM [5] was 19% and the Drug uptake [6] was “Active”. The EC50 (Nonstructural protein 5A) was 4.8 µM, the bioavailability [7] was 57.3% and the IC50 [8] was > 40 µM. For the same compound, the efflux ratio [9] was 14, the inhibition [10] was “inactive” and the Papp B→A [11] was 9.8 ×10⁻⁶ cm/s. The Ratio EC50 [12] was 10 to 20, the inhibition [13] was “Active” and the remaining at 2 h, 1 µM [14] was 76%. For the same compound, the half-life [15] was 396 min, the bioavailability [16] was 69% and the Drug uptake [17] was “Active”. The AUC(0-inf) [18] was 310 ng·h/mL, the inhibition [19] was “Active” and the remaining at 2 h, 10 µM [20] was 100%. The AUC(0-inf) [21] was 1580 ng·h/mL, the inhibition [22] was “Active” and the clearance [23] was 13.8 mL/min/kg. The inhibition [24] was “Active”, the fraction unbound at 1 µM [25] was 0.014 and the remaining at 2 h, 1 µM [26] was 14%. The Papp A→B [27] was 0.7 ×10⁻⁶ cm/s, the inhibition [28] was “inactive” and the EC50 [29] was 400 nM. The EC50 [30] was 120 nM, the inhibition [31] was “Active” and the AUC [32] was 4.27 µg·h/mL. For the same compound, the Drug uptake [33] was “Active”, the remaining at 2 h, 1 µM [34] was 99% and the clearance [35] was 9.9 mL/min/kg. The Activity (Hepatocyte) was “Non-Toxic”, the AUC(0-inf) [36] was 1730 ng·h/mL and the Cmax [37] was 240 ng/mL. The inhibition (Homo sapiens) was “inactive”, the inhibition [38] was “Active” and the solubility [39] was 1800 µg/mL (≈ 3.79 mM). It also gave a fraction unbound at 1 µM [40] of 0.003, a half-life [41] of 126 min and a Cmax [42] of 1730 ng/mL. The fraction unbound at 1 µM [43] was 0.162.
